Laboratory results: US20160129005A1, “ADENINE DERIVATIVES HAVING IMMUNOMODULATING ANTI-INFLAMMATORY AND ANALGESIC ACTIVITY” (MEDESTEA RESEARCH & PRODUCTION S.p.A., priority 2011, published 2016)

Experiments:
[1] = test system: C57BL/6 mice transplanted with BALB/c hearts; assay: Murine heterotopic heart transplant model; assay type: in vivo, mouse; conditions: Rapamycin alone 0.1 mg/kg day 0 to day 10; n=5; Ctrl MST=7
Procedure: The immunosuppressive potential of […] was tested on a heterotopic heart transplant model; hearts of BALB/c mice were transplanted into the abdominal cavity of C57BL/6 mice.
The beats of the heart were measured, twice weekly, by palpation; stopping of beating was regarded as a sign of transplant rejection.
Three different protocols were used for prolonging transplant survival times: the “short-term” protocol ([…] 9 mg/kg daily for 14 days), the “long-term” protocol ([…] 9 mg/kg every day until rejection), and the “Combo” protocol ([…] on alternate days: day 0, 2, 4, 6, 8, 10, 12, 14+Rapamycin 0.1 mg/kg from day 0 to day 10).
In the acute heart transplant models, the hearts of BALB/c were transplanted into the peritoneal cavity of C57BL/6 mice. The control mice invariably reject the transplant in 10 days (Ctrl: MST=7 days, n=12), (FIG. 26). The “short-term” protocol permitted indefinite survival (100 days) in 10 mice out of 12 (n=12; p=0.0001 vs. Ctrl), (FIG. 26). Similarly, the “long-term” protocol permitted indefinite survival in 8 mice out of 10 (n=10; p=0.002 vs Ctrl), and prolonged survival in the remaining 2 (16 days and 25 days; p=0.002 vs. Ctrl), (FIG. 26).
The histological sections of the hearts on day 7 of BALB/c mice, transplanted into a C57BL/6 host, and treated with the “short-term” protocol, were also analysed.

[2] = test system: Swiss CD1 mice; assay: CFA thermal hyperalgesia, synergy with opioids
Procedure: We compared the activity of […] with that of the opioids to study its analgesic effect.
Mice of the Swiss CD1 type were given a single intraplantar injection of 30 microlitres of complete Freund adjuvant (CFA) in the right plantar pad. Intraperitoneal injection of […] and/or of morphine (morphine chlorhydrate, Molteni) was administered 24 hours after injection of CFA according to the following scheme:
1. […] 7.5 mg/kg; 2. […] 10 mg/kg; 3. […] 200 mg/kg; 4. […] 50 mg/kg; 5. Morphine 0.4 mg/kg; 6. Morphine 2.5 mg/kg; 7. Morphine 1 mg/kg; 8. Morphine 0.4 mg/kg; 9. Morphine 1 mg/kg+[…] 10 mg/kg; 10. Morphine 0.4 mg/kg+[…] 10 mg/kg; 11. Morphine 1 mg/kg+[…] 10 mg/kg; 12. Morphine 0.4 mg/kg+[…] 10 mg/kg; 13. Morphine 4 mg/kg.
Groups 9-11 and 10-12 have the same doses respectively; they were repeated to confirm the results.
Thermal hyperalgesia was assessed using the Ugo Basile apparatus (Comerio, Italy).
The test was carried out before (baseline values) injection of CFA, after injection of CFA and 0.5, 1, 2, 3, 6 and 12 hours after injecting the drug in the inflamed pad.

| Structure (SMILES) | MST (mean survival time) [1] | obsessive-compulsive disorders (behaviour) ([2]; morphine 2.5 mg/kg or higher doses) | activity on nociception ([2]; morphine alone i.p. at the highest dose) |
| --- | --- | --- | --- |
| CO[C@H]1C[C@@H]2CC[C@@H](C)[C@@](O)(O2)C(=O)C(=O)N2CCCC[C@H]2C(=O)O[C@H]([C@H](C)C[C@@H]2CC[C@@H](O)[C@H](OC)C2)CC(=O)[C@H](C)/C=C(\C)[C@@H](O)[C@@H](OC)C(=O)[C@H](C)C[C@H](C)/C=C/C=C/C=C/1C [Rapamycin, reference compound] | 25 days |  |  |
| CN1CC[C@]23c4c5ccc(O)c4O[C@H]2[C@@H](O)C=C[C@H]3[C@H]1C5 [morphine, morphine chlorhydrate, reference compound] |  | displayed obsessive-compulsive disorders | anaesthetic-like |
